Literature values as cited in patent US20210236687A1, “CANNABINOID-BASED ORAL HEMOSTATIC COMPOSITIONS” (Pac-Dent, Inc., priority 2020, published 2021).

What was measured:
[1] = tested on: methicillin-resistant Staphylococcus aureus strains (MRSA); details: European research
[2] = tested on: MCP-2 chemokine and other proinflammatory cytokines; details: Petrosino et al. 2018; inhibition of production of MCP-2 chemokine and other proinflammatory cytokines
[3] = in vivo
[4] = Evans 1991
[5] = tested on: cyclooxygenase (COX)
[6] = in vivo; remark: listed apart in the source

CCCCCc1cc(O)c(C/C=C(\C)CCC=C(C)C)c(O)c1 [CBG, cannabigerol]
antibacterial effect against MRSA strains resistant to several classes of drugs [1]: effective antibacterial agent
anti-inflammatory properties in an in vitro model of allergic contact dermatitis [2]: some anti-inflammatory benefits
inflammation characteristics in animal experiments [3]: effective in decreasing the inflammation characteristics

C=C(C)[C@@H]1CCC(C)=C[C@H]1c1c(O)cc(CCC)cc1O [CBDV, cannabidivarin]
anti-inflammatory properties in an in vitro model of allergic contact dermatitis [2]: some anti-inflammatory benefits

C=C(C)[C@@H]1CCC(C)=C[C@H]1c1c(O)cc(CCCCC)cc1O [CBD, cannabidiol, reference compound]
anti-inflammatory properties in an in vitro model of allergic contact dermatitis [2]: potent anti-inflammatory properties

CCCCCc1cc(O)c2c(c1)OC(C)(C)[C@@H]1CCC(C)=C[C@@H]21 [THC, tetrahydrocannabinol]
anti-inflammatory potency relative to aspirin [4]: twenty times
anti-inflammatory potency relative to hydrocortisone [4]: twice
cyclooxygenase (COX) inhibition [5]: without any cyclooxygenase (COX) inhibition

CCCCCc1cc(O)c2c(c1)OC(C)(CCC=C(C)C)C=C2 (stereo not shown) [CBC, cannabichromene]
anti-inflammatory properties in an in vitro model of allergic contact dermatitis [2]: some anti-inflammatory benefits
pain and inflammation associated with collagen-induced osteoarthritis [6]: block pain and inflammation
